The values below come from patent US11572337B2, “Antibacterial agents: arylalkylcarboxamido phloroglucinols” (Rutgers, The State University of New Jersey, priority 2018, dated 2023).

≈ marks a conversion by molar mass, not a printed value.

Test [1] addresses E. coli RNA polymerase σ70 holoenzyme (Escherichia coli (strain K12), UniProt P0A8T7+P0A8V2). The experiment in a line: Fluorescence-detected assay of inhibition of Escherichia coli RNA polymerase. In kind it is biochemical. The note with it: T4 N25 promoter DNA, RiboGreen fluorescence, read-out: RNAP-inhibitory activity E. coli RNAP IC50. How it is done:
(§1) Fluorescence-detected RNA polymerase assays with E. coli RNA polymerase were performed by a modification of the procedure of Kuhlman et al., 2004 [Kuhlman, P., Duff, H. & Galant, A. (2004) A fluorescence-based assay for multisubunit DNA-dependent RNA polymerases. Anal. Biochem. 324, 183-190]. Reaction mixtures contained […]: […] test salt, 75 nM E. coli RNA polymerase σ^70 holoenzyme, 20 nM 384 bp DNA fragment containing the bacteriophage T4 N25 promoter, 100 μM ATP, 100 μM GTP, 100 μM UTP, 100 μM CTP, 50 mM Tris-HCl, pH 8.0, 100 mM KCl, 10 mM MgCl2, 1 mM DTT, 10 μg/ml bovine serum albumin, and 5.5% glycerol. Reaction components other than DNA and NTPs were pre-incubated for 10 min at 37° C. Reactions were carried out by addition of DNA and incubation for 5 min at 37° C., followed by addition of NTPs and incubation for 60 min at 37° C. DNA was removed by addition of 1 μl 5 mM CaCl2 and 2 U DNaseI (Ambion, Inc.), followed by incubation for 90 min at 37° C. RNA was quantified by addition of 100 μI RiboGreen RNA Quantitation Reagent (Invitrogen, Inc.; 1:500 dilution in Tris-HCl, pH 8.0, 1 mM EDTA), followed by incubation for 10 min at 25° C., followed by measurement of fluorescence intensity [excitation wavelength=485 nm and emission wavelength=535 nm; QuantaMaster QM1 spectrofluorometer (PTI, Inc.)]. IC50 is defined as the concentration of inhibitor resulting in 50% inhibition of RNA polymerase activity.

Test [2] deals with Staphylococcus aureus ATCC 12600. Description: Inhibition of growth of Staphylococcus aureus (spiral gradient endpoint MIC assay). In kind it is cell-based. The note with it: ATCC12600, Mueller-Hinton II cation-adjusted agar, 16 h at 37° C., read-out: in vitro antibacterial activity S. aureus ATCC12600 MIC. The text has this:
Minimum inhibitory concentrations (MICs for Staphylococcus aureus ATCC 12600 were quantified using spiral gradient endpoint assays, essentially as described [Wallace, A. and Corkill, J. (1989) Application of the spiral plating method to study antimicrobial action. J. Microbiol. Meths. 10, 303-310; Paton, J., Holt, A., and Bywater, M. (1990) Measurement of MICs of antibacterial agents by spiral gradient endpoint compared with conventional dilution methods. Int. I Exp. Clin. Chemother. 3, 31-38; Schalkowsky S. (1994) Measures of susceptibility from a spiral gradient of drug concentrations. Adv. Exp. Med. Biol. 349, 107-120]. Assays employed exponential-gradient plates containing 150 mm×4 mm Mueller-Hinton II cation-adjusted agar and 0.4-100 μg/ml of test salt. Plates were prepared using an Autoplate 4000 spiral plater (Spiral Biotech, Inc.). Saturated overnight cultures were swabbed radially onto plates, and plates were incubated for 16 h at 37° C. For each culture, the streak length was measured using a clear plastic template (Spiral Biotech, Inc.), the test-salt concentration at the streak endpoint was calculated using the program SGE (Spiral Biotech, Inc.), and the MIC was defined as the calculated test-salt concentration at the streak endpoint.

Test [3] concerns the target S. aureus RNA polymerase core enzyme + S. aureus σA (Staphylococcus aureus (strain NCTC 8325 / PS 47), UniProt P47768+Q2G0N5). Description: Fluorescence-detected assay of inhibition of Staphylococcus aureus RNA polymerase. Format: biochemical. The note with it: T4 N25 promoter DNA, RiboGreen fluorescence, read-out: RNAP-inhibitory activity S. aureus RNAP IC50. The protocol: as §1
Fluorescence-detected RNA polymerase assays with S. aureus RNA polymerase were performed as in Example 2.1, using reaction mixtures containing (20 μl): 0-100 nM test salt, 75 nM S. aureus RNA polymerase core enzyme, 300 nM S. aureus σ^A, 20 nM 384 bp DNA fragment containing the bacteriophage T4 N25 promoter, 100 μM ATP, 100 μM GTP, 100 μM UTP, 100 μM CTP, 40 mM Tris-HCl, pH 8.0, 80 mM NaCl, 5 mM MgCl2, 2.5 mM DTT, and 12.7% glycerol. IC50 is defined as the concentration of inhibitor resulting in 50% inhibition of RNA polymerase activity.

By IC50 is commonly meant the concentration needed to halve the response being measured. In general, MIC refers to the lowest concentration found to suppress growth. As to `O=C(NCc1ccc(Oc2ccccc2)cc1)c1c(O)cc(O)cc1O` [Compound 0MTK149, 2,4,6-trihydroxy-N-(4-phenoxybenzyl)benzamide], the IC50 turned out to be 0.14 µM in test [1] and 1.5 µM in test [3]. The MIC in test [2] stood at 19 µg/mL (≈ 54.1 µM).

`O=C(NCc1ccc(Oc2ccc(F)cc2)cc1)c1c(O)cc(O)cc1O` [Compound 0MTK154, N-(4-(4-fluorophenoxy)benzyl)-2,4,6-trihydroxybenzamide]: the IC50 was found to be 0.42 µM in test [1] and 3.5 µM in test [3]. In test [2], the MIC amounted to 15 µg/mL (≈ 40.6 µM).

In the case of `O=C(NCc1ccc(Oc2ccc(F)cc2)cc1C(F)(F)F)c1c(O)cc(O)cc1O` [Compound 0MTK155, N-(4-(4-fluorophenoxy)-2-(trifluoromethyl)benzyl)-2,4,6-trihydroxybenzamide], the figures for the 50% inhibitory concentration (IC50) in test [1] and in test [3] were 0.79 µM and 8.1 µM, respectively. Also, in test [2], the MIC was found to be 8.1 µg/mL (≈ 18.5 µM).

On to `O=C(NCCc1ccc(Oc2ccc(F)cc2)cc1)c1c(O)cc(O)cc1O` [Compound 0MTK156, N-(4-(4-fluorophenoxy)phenethyl)-2,4,6-trihydroxybenzamide], for which the IC50 in test [1] amounted to 0.82 µM; in test [3], 5.5 µM. Moreover, the MIC in test [2] came to 8.3 µg/mL (≈ 21.6 µM).

Turning to `O=C(NCc1ccc(Oc2ccccc2)cc1C(F)(F)F)c1c(O)cc(O)cc1O` [Compound 0MTK158, 2,4,6-trihydroxy-N-(4-phenoxy-2-(trifluoromethyl)benzyl)benzamide], the IC50 in test [1] came to 0.22 µM; in test [3], 1.8 µM. Further, in test [2], the MIC stood at 5.4 µg/mL (≈ 12.9 µM).

Consider `O=C(NCc1ccc(Oc2ccc(F)cc2)c(Cl)c1)c1c(O)cc(O)cc1O` [Compound 0MTK174, N-(3-chloro-4-(4-fluorophenoxy)benzyl)-2,4,6-trihydroxybenzamide], for which the IC50 in test [1] amounted to 0.41 µM; in test [3], 14 µM. For the same compound, the MIC in test [2] was 8.6 µg/mL (≈ 21.3 µM).

Consider `O=C(NCc1ccc(Oc2ccc(F)cc2)c(F)c1)c1c(O)cc(O)cc1O` [Compound 0MTK175, N-(3-fluoro-4-(4-fluorophenoxy)benzyl)-2,4,6-trihydroxybenzamide], for which the IC50 is 0.45 µM in test [1] and 7 µM in test [3]. Further, in test [2], the MIC amounted to 8.6 µg/mL (≈ 22.2 µM).

`Cc1cc(Oc2ccc(F)cc2)ccc1CNC(=O)c1c(O)cc(O)cc1O` [Compound 0MTK176, N-(4-(4-fluorophenoxy)-2-methylbenzyl)-2,4,6-trihydroxybenzamide]: the IC50 was 0.39 µM in test [1] and 12 µM in test [3]. The MIC in test [2] was 5.3 µg/mL (≈ 13.8 µM).

Consider `COc1cc(Oc2ccc(F)cc2)ccc1CNC(=O)c1c(O)cc(O)cc1O` [Compound 0MTK178, N-(4-(4-fluorophenoxy)-2-methoxybenzyl)-2,4,6-trihydroxybenzamide], for which the IC50 in test [1] came out at 0.61 µM; in test [3], 18 µM. In addition, the MIC in test [2] was found to be 7.8 µg/mL (≈ 19.5 µM).

With `O=C(NCCc1ccc(Oc2cc(Cl)cc(Cl)c2)cc1)c1c(O)cc(O)cc1O` [Compound 0MTK180, N-(4-(3,5-dichlorophenoxy)phenethyl)-2,4,6-trihydroxybenzamide], the IC50 amounted to 0.83 µM in test [1] and 6.6 µM in test [3]. Also, the MIC in test [2] stood at 1.8 µg/mL (≈ 4.14 µM).

`O=C(NCc1ccc(Oc2ccc(F)cc2)cc1Cl)c1c(O)cc(O)cc1O` [Compound 0MTK181, N-(2-chloro-4-(4-fluorophenoxy)benzyl)-2,4,6-trihydroxybenzamide]: the IC50 in test [1] is 1.4 µM; in test [3], greater than 60 µM. In addition, the MIC in test [2] was determined as 6.9 µg/mL (≈ 17.1 µM).

Turning to `O=C(NCCc1ccc(Oc2ccc(Cl)cc2)cc1)c1c(O)cc(O)cc1O` [Compound 0MTK183, N-(4-(4-chlorophenoxy)phenethyl)-2,4,6-trihydroxybenzamide], the IC50 in test [1] came to 1.7 µM; in test [3], 14 µM. Also, in test [2], the minimum inhibitory concentration (MIC) worked out at 6.1 µg/mL (≈ 15.3 µM).

On to `O=C(NCCCc1ccc(Cl)cc1)c1c(O)cc(O)cc1O` [Compound 0MTK204, N-(3-(4-chlorophenyl)propyl)-2,4,6-trihydroxybenzamide], for which the 50% inhibitory concentration (IC50) stood at 7 µM in test [1] and 8 µM in test [3]. The minimum inhibitory concentration (MIC) in test [2] came to 27 µg/mL (≈ 83.9 µM).

On to `O=C(NCCc1ccc(C(F)(F)F)cc1)c1c(O)cc(O)cc1O` [Compound 0MTK207, 2,4,6-trihydroxy-N-(4-(trifluoromethyl)phenethyl)benzamide], for which the IC50 amounted to 7.4 µM in test [1] and 13 µM in test [3]. In addition, the MIC in test [2] turned out to be 19 µg/mL (≈ 55.7 µM).

Regarding `O=C(NCCc1ccc(C(F)(F)F)cc1C(F)(F)F)c1c(O)cc(O)cc1O` [Compound 0MTK208, N-(2,4-bis(trifluoromethyl)phenethyl)-2,4,6-trihydroxybenzamide], the IC50 was 7.2 µM in test [1] and 5 µM in test [3]. Also, the minimal inhibitory concentration (MIC) in test [2] stood at 11 µg/mL (≈ 26.9 µM).

Take `O=C(NCCc1ccc(Cl)cc1)c1c(O)c(Cl)c(O)c(Cl)c1O` [Compound 0MTK221, 3,5-dichloro-N-(4-chlorophenethyl)-2,4,6-trihydroxybenzamide]: the IC50 in test [1] worked out at 14 µM; in test [3] it was 98 µM. Besides, the MIC in test [2] was greater than 40 µg/mL.

`O=C(NCCc1ccc(Cl)cc1)c1c(O)cc(O)c(Cl)c1O` [Compound 0MTK222, 3-chloro-N-(4-chlorophenethyl)-2,4,6-trihydroxybenzamide]: the IC50 in test [1] worked out at 6.8 µM; in test [3], 9 µM. The MIC in test [2] is greater than 40 µg/mL.

Take `O=C(NCCc1ccc(C(F)(F)F)cc1)c1c(O)cc(O)c(Cl)c1O` [Compound 0MTK223, 3-chloro-2,4,6-trihydroxy-N-(4-(trifluoromethyl)phenethyl)benzamide]: the IC50 was determined as 6.6 µM in test [1] and 10 µM in test [3]. Besides, in test [2], the MIC is greater than 40 µg/mL.

For `O=C(NCCc1ccc(C(F)(F)F)cc1)c1c(O)c(Cl)c(O)c(Cl)c1O` [Compound 0MTK224, 3,5-dichloro-2,4,6-trihydroxy-N-(4-(trifluoromethyl)phenethyl)benzamide], the IC50 in test [1] was 25 µM; in test [3] it was greater than 100 µM. For the same compound, in test [2], the MIC was greater than 40 µg/mL.

For `O=C(NCCc1ccc(Oc2ccccc2)cc1)c1c(O)c(Cl)c(O)c(Cl)c1O` [Compound 0MTK230, 3,5-dichloro-2,4,6-trihydroxy-N-(4-phenoxyphenethyl)benzamide], the 50% inhibitory concentration (IC50) in test [1] was 7.7 µM; in test [3], 35 µM. The MIC in test [2] is greater than 40 µg/mL.

`O=C(NCCc1ccc(Oc2ccc(F)cc2)cc1)c1c(O)c(Cl)c(O)c(Cl)c1O` [Compound 0MTK231, 3,5-dichloro-N-(4-(4-fluorophenoxy)phenethyl)-2,4,6-trihydroxybenzamide]: the results for the IC50 in test [1] and in test [3] were 8.4 µM and 31 µM, respectively. Besides, the MIC in test [2] is 33 µg/mL (≈ 73 µM).

With `O=C(NCCc1ccc(Oc2ccc(Cl)cc2)cc1)c1c(O)cc(O)c(Cl)c1O` [Compound 0MTK232, 3-chloro-N-(4-(4-chlorophenoxy)phenethyl)-2,4,6-trihydroxybenzamide], the results for the IC50 in test [1] and in test [3] were 0.72 µM and 8 µM, respectively. Also, the MIC in test [2] was determined as 20 µg/mL (≈ 46.1 µM).

For `O=C(NCCc1ccc(Oc2ccc(Cl)cc2)cc1)c1c(O)c(Cl)c(O)c(Cl)c1O` [Compound 0MTK233, 3,5-dichloro-N-(4-(4-chlorophenoxy)phenethyl)-2,4,6-trihydroxybenzamide], the 50% inhibitory concentration (IC50) in test [1] came out at 4.5 µM; in test [3], 23 µM. In test [2], the MIC is 6.8 µg/mL (≈ 14.5 µM).
